Data taken from patent publication US12527831B2, “Skin care compositions comprising synergistic blend of sacred lotus and tea plant or sacred lotus and German Chamomile and cosmetic applications thereof” (ISP INVESTMENTS LLC, priority 2019, dated 2026).

System: IL-1α
Assay: Inhibition of IL-1α induced by SDS in cultured epidermal keratinocytes (ELISA)
Assay type: cell-based
Settings: Homo sapiens, Keratinocyte; anti-inflammatory benchmark, HEK; read-out: IC50 in inhibiting SDS-induced IL-1α
Procedure: Normal human adult epidermal keratinocytes (HEK) and all cell culture supplies were obtained from Life Technologies Co. (Carlsbad, CA, USA). The cells were grown and then maintained in keratinocyte basal medium 154 ([…]) with added human keratinocyte growth supplements (HKGS) at 37° C. in an atmosphere of 5% CO2 and used between passages 2 to 4. For the experiments, HEK cells were trypsinized, seeded in 96-well plates, and grown to 80% confluence. Specific concentrations of SDS were used for induction of chemokines and cytokines in the cultured HEK cells. IL-1α was induced with 25 μg/mL SDS. The cells were exposed for 16 hours to either SDS alone, or in combination with test articles at various concentrations in triplicates. After incubation, HEK cell supernatants were collected, and levels of interleukins were quantified using Quantikine® ELISA kits from R&D Systems Inc. IL-1α was quantified with catalogue number SLA50 kit. Percent (%) inhibition of IL-1α by the test articles were calculated by comparing to controls from non-SDS-induced cells considered as 0% and from SDS-induced cells considered as 100%. LDH assay using CytoscanTM LDH Assay kit (G-Biosciences Cat. No. 786-324) was performed on all HEK culture supernatants to make sure all tested concentrations had no cytotoxicity, and Kit-supplied lysis buffer was used as positive control.

- IC50: 230 µg/mL
Structure (SMILES): CC(=O)Oc1ccccc1C(=O)O [Aspirin]
